Like-named read-outs stand apart in the source and are kept apart here.
How the values were obtained:
Test in all cases: KinomeScan kinase panel, single concentration 10 µM
Format in all cases: binding
KinomeScan kinase panel [1] = target: T1, KinomeScan kinase panel (Homo sapiens, UniProt Q05397); details: read-out: score (%)
T1 construct: purchased DiscoveRx (KinomeScan)

KinomeScan kinase panel [2] = target: T2, KinomeScan kinase panel (Homo sapiens, UniProt Q6PHR2); details: kinase ULK3; 10 µM
T2 construct: purchased DiscoveRx (KinomeScan)
T2 sequence (Q6PHR2 1-472): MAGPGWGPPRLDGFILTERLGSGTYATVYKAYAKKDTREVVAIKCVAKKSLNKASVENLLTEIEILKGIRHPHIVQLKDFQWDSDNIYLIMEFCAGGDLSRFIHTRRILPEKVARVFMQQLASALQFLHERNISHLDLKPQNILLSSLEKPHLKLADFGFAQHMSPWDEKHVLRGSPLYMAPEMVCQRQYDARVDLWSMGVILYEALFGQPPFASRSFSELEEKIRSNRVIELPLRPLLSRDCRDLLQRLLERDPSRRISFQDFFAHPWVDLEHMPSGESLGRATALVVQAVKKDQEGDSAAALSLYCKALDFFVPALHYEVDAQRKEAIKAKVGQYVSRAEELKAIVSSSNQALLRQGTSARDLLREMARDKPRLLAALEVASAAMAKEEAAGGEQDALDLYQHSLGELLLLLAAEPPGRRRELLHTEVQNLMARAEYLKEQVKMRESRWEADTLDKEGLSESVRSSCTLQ

KinomeScan kinase panel [3] = target: T3, KinomeScan kinase panel (Homo sapiens, UniProt P30530); details: AXL, 10 µM; read-out: score (%)
T3 construct: purchased DiscoveRx (KinomeScan)
T3 sequence (P30530 26-894): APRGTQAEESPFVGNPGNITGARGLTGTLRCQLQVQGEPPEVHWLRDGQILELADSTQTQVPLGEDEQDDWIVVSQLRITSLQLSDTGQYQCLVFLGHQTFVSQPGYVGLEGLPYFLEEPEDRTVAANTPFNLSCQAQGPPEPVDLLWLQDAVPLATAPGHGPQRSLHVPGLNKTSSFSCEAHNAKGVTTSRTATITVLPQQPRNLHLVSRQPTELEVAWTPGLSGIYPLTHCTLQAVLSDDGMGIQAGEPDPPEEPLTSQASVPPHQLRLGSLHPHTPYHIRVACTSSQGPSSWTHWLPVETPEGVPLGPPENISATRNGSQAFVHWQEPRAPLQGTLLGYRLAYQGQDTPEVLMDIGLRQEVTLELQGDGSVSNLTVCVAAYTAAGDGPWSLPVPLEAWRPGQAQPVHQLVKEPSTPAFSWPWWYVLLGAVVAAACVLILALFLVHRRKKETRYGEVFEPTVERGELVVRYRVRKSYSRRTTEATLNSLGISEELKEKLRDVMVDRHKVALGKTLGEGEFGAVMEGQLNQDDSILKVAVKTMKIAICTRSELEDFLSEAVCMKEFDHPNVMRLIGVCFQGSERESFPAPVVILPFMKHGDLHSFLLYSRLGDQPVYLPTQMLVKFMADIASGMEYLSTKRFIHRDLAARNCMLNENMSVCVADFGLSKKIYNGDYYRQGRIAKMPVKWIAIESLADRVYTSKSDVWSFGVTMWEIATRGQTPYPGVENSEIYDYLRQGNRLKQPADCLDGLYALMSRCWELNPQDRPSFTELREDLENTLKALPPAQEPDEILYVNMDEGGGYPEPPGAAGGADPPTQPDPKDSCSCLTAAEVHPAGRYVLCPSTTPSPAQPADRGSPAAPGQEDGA

KinomeScan kinase panel [4] = target: T4, KinomeScan kinase panel (Homo sapiens, UniProt Q9Y4K4); details: MAP4K5, 10 µM; read-out: score (%)
T4 construct: purchased DiscoveRx (KinomeScan)
T4 sequence (Q9Y4K4 whole entry): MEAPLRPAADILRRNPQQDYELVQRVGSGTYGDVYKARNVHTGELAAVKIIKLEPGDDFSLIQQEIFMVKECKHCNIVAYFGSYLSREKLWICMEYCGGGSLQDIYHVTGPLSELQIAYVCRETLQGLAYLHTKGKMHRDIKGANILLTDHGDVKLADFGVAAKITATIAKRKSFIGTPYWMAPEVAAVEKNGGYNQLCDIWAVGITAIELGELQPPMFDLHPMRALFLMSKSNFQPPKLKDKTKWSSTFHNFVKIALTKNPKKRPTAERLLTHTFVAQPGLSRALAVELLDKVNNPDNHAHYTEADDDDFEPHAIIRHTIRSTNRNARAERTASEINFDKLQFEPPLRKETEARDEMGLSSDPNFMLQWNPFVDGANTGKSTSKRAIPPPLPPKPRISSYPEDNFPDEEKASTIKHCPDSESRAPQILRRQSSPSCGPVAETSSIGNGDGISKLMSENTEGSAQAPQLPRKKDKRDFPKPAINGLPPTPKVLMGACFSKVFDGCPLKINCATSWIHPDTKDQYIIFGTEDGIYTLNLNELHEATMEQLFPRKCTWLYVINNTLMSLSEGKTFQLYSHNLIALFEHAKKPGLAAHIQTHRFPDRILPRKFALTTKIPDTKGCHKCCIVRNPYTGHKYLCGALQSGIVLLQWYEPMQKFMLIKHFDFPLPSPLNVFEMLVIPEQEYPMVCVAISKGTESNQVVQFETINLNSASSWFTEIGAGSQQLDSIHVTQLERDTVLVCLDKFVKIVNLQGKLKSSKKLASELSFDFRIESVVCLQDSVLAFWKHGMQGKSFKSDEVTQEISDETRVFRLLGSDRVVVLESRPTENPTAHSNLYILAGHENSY

KinomeScan kinase panel [5] = target: T5, KinomeScan kinase panel (Homo sapiens, UniProt Q8NI60); details: ADCK3, 10 µM; read-out: score (%)
T5 construct: purchased DiscoveRx (KinomeScan)
T5 sequence (Q8NI60 163-647): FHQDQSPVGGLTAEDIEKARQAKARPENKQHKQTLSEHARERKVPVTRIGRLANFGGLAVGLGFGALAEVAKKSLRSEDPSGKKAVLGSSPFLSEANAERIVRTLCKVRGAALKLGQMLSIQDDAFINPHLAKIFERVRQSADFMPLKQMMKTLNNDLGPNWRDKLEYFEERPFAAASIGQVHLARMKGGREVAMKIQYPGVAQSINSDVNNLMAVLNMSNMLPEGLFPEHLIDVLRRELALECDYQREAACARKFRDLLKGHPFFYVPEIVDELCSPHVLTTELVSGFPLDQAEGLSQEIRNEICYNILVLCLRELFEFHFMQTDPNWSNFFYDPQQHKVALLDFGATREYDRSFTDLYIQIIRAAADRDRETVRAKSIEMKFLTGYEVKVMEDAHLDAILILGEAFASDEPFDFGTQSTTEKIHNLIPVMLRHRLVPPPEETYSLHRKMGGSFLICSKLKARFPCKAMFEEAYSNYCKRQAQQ

KinomeScan kinase panel [6] = target: T6, KinomeScan kinase panel (Homo sapiens, UniProt O75676); details: 10 µM, read-out: score (%)
T6 construct: purchased DiscoveRx (KinomeScan)
T6 sequence (O75676 whole entry): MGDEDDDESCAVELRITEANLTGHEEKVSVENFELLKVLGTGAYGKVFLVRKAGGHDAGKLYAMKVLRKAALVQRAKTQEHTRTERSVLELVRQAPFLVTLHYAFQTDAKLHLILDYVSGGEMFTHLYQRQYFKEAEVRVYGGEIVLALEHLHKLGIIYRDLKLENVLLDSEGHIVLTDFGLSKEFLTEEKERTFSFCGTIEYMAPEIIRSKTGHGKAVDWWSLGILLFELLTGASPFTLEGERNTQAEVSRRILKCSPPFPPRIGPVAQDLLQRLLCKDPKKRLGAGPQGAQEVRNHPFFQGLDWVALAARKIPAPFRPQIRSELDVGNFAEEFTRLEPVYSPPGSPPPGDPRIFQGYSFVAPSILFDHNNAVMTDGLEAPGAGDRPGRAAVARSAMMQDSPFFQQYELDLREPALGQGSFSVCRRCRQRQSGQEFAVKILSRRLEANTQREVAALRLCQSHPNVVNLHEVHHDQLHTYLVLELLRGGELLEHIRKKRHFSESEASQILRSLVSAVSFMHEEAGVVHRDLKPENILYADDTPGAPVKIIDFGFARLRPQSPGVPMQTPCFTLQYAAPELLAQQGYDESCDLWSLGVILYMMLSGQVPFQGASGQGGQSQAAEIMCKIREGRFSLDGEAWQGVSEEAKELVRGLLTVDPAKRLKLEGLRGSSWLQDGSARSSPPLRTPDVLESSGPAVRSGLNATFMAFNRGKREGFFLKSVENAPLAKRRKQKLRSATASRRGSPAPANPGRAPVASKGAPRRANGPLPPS

KinomeScan kinase panel [7] = target: T7, KinomeScan kinase panel (Homo sapiens, UniProt Q9UQ88); details: CDC2L2, 10 µM; read-out: score (%)
T7 construct: purchased DiscoveRx (KinomeScan)
T7 sequence (Q9UQ88 1-783): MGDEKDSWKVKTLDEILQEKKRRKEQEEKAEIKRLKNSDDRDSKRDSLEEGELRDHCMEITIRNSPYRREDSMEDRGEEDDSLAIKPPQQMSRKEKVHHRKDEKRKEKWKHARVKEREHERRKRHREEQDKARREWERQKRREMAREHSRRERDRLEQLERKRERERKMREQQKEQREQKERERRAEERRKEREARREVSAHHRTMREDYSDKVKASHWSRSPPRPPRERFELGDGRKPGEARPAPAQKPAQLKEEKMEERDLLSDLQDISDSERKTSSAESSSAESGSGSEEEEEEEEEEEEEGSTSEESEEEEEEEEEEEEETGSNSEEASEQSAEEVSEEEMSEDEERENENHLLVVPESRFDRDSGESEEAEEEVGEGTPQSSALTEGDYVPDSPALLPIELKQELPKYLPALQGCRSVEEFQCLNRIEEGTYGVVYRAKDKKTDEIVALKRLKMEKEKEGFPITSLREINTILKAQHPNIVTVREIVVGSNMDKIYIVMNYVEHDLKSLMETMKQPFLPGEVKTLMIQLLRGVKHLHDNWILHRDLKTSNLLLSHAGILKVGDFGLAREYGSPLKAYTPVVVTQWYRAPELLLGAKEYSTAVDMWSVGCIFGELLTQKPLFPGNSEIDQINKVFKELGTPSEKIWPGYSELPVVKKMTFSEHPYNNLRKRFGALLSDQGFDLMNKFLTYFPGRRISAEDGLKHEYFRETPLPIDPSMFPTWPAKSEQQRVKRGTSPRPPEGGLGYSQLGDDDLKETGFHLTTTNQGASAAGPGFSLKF

[8] = kinase RPS6KA4(Kin.Dom.1-N-terminal)
[9] = kinase RPS6KA4(Kin.Dom.2-C-terminal)

T1 sequence (Q05397 whole entry): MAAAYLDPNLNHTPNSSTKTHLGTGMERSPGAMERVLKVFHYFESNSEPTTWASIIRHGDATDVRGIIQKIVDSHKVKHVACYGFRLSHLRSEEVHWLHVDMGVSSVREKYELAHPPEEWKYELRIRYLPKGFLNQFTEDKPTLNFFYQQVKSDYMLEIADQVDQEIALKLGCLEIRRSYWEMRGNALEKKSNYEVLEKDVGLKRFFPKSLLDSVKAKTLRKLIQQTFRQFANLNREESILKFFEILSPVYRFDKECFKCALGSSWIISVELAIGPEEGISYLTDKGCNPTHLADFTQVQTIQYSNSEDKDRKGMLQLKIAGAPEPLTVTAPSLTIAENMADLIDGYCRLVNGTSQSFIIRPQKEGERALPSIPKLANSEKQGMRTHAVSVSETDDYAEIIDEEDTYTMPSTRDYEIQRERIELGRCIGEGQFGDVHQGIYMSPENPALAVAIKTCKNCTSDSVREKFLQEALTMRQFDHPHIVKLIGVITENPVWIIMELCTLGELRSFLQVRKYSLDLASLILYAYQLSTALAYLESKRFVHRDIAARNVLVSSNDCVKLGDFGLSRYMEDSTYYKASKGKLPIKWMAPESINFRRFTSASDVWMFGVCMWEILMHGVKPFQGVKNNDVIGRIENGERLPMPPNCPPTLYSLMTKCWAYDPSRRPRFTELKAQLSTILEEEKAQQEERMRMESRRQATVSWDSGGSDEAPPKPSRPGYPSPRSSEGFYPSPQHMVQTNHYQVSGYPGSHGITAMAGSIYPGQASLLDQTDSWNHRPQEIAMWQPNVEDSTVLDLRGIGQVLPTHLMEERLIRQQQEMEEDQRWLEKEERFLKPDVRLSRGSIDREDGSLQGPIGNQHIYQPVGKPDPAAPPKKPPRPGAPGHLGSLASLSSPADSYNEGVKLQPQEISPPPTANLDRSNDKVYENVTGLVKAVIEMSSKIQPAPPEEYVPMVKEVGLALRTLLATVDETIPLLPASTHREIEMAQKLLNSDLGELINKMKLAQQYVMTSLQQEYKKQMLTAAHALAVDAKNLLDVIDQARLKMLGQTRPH

CCN1CCN(Cc2ccc(NC(=O)c3ccc(C)c(NC(=O)c4cncc(-c5cccs5)c4)c3)cc2C(F)(F)F)CC1 [ALW-II-41-27]
remaining binding at 10 µM (KinomeScan kinase panel [1]; FAK, 10 µM): > 30%
score (%) (KinomeScan kinase panel [2]): 0.95%
remaining binding at 10 µM (KinomeScan kinase panel [3]): > 30%
remaining binding at 10 µM (KinomeScan kinase panel [4]): 0.75%
remaining binding at 10 µM (KinomeScan kinase panel [5]): > 30%
remaining binding at 10 µM (KinomeScan kinase panel [6]; [8]): 6.3%
remaining binding at 10 µM (KinomeScan kinase panel [6]; [9]): > 30%
remaining binding at 10 µM (KinomeScan kinase panel [7]): 1.8%

CCN1CCN(Cc2ccc(NC(=O)c3ccc(C)c(C#Cc4cccnc4)c3)cc2C(F)(F)F)CC1 [XMD15-44]
remaining binding at 10 µM (KinomeScan kinase panel [1]; FAK, 10 µM): > 30%
score (%) (KinomeScan kinase panel [2]): 0.25%
remaining binding at 10 µM (KinomeScan kinase panel [3]): 2.9%
remaining binding at 10 µM (KinomeScan kinase panel [4]): 3%
remaining binding at 10 µM (KinomeScan kinase panel [5]): > 30%
remaining binding at 10 µM (KinomeScan kinase panel [6]; [8]): 30%
remaining binding at 10 µM (KinomeScan kinase panel [6]; [9]): 99%
remaining binding at 10 µM (KinomeScan kinase panel [7]): 1.6%

CCN1CCN(Cc2ccc(NC(=O)c3ccc(C)c(/C=C/c4cnc5[nH]ccc5c4Cl)c3)cc2C(F)(F)F)CC1 [HG-6-63-01, (E)-3-(2-(4-chloro-1H-pyrrolo[2,3-b]pyridin-5-yl)vinyl)-N-(4-((4-ethylpiperazin-1-yl)methyl)-3-(trifluoromethyl)phenyl)-4-methylbenzamide]
remaining binding at 10 µM (KinomeScan kinase panel [1]; PTK2, 10 µM): > 30%
score (%) (KinomeScan kinase panel [2]): 23%
remaining binding at 10 µM (KinomeScan kinase panel [3]): 17%
remaining binding at 10 µM (KinomeScan kinase panel [4]): 1.8%
remaining binding at 10 µM (KinomeScan kinase panel [5]): > 30%
remaining binding at 10 µM (KinomeScan kinase panel [6]; RPS6KA4(Kin.Dom.1)): > 30%
remaining binding at 10 µM (KinomeScan kinase panel [6]; RPS6KA4(Kin.Dom.2)): > 30%
remaining binding at 10 µM (KinomeScan kinase panel [7]): 17%
